Experimental data reported in US6852673B2, “Herbicidal pyridine compounds” (BASF Aktiengesellschaft, priority 1998, dated 2005).

Legend:
Format in all cases: in vivo
[1] = tested on: Solanum nigrum (SOLNI); assay: Pre-emergence herbicidal evaluation, black nightshade
Outline: (§1)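 Pre-emergence; seed/potting-soil mix sown on ~1 inch soil; spray aqueous acetone solution, ~0.0125–0.4 kg/ha equivalent; greenhouse, watered; visual rating at 2–4 wk.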

[2] = tested on: Galium aparine (GALAP); assay: Post-emergence herbicidal evaluation, cleaver; conditions: rated 2 to 4 weeks after treatment
Outline: (§2)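 Each compound, dissolved in acetone and diluted with water, is sprayed onto seedling plants at dosages equivalent to about 0.03 to 0.4 kg per hectare per pot. The plants then stay on greenhouse benches under usual practice and are scored between 2 and 4 weeks later, where 9 means death and 0 means growth like untreated controls.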

[3] = tested on: Zea mays (ZEAMX); assay: Post-emergence herbicidal evaluation, maize; conditions: rated 2 to 4 weeks after treatment
Outline: as §2

[4] = tested on: Triticum aestivum (TRZAW); assay: Post-emergence herbicidal evaluation, winter wheat; conditions: rated 2 to 4 weeks after treatment
Outline: as §2

[5] = tested on: Glycine max (GLXMA); assay: Pre-emergence herbicidal evaluation, soyabeans
Outline: as §1

[6] = tested on: Abutilon theophrasti (ABUTH); assay: Post-emergence herbicidal evaluation, velvetleaf; conditions: rated 2 to 4 weeks after treatment
Outline: as §2

[7] = tested on: Setaria viridis (SETVI); assay: Pre-emergence herbicidal evaluation, green foxtail
Outline: as §1

[8] = tested on: Glycine max (GLXMA); assay: Post-emergence herbicidal evaluation, soyabeans; conditions: rated 2 to 4 weeks after treatment
Outline: as §2

[9] = tested on: Matricaria inodora (MATIN); assay: Post-emergence herbicidal evaluation, mayweed; conditions: rated 2 to 4 weeks after treatment
Outline: as §2

[10] = tested on: Digitaria sanguinalis (DIGSA); assay: Post-emergence herbicidal evaluation, large crabgrass; conditions: rated 2 to 4 weeks after treatment
Outline: as §2

[11] = tested on: Zea mays (ZEAMX); assay: Pre-emergence herbicidal evaluation, maize
Outline: as §1

[12] = tested on: Abutilon theophrasti (ABUTH); assay: Pre-emergence herbicidal evaluation, velvetleaf
Outline: as §1

[13] = tested on: Triticum aestivum (TRZAW); assay: Pre-emergence herbicidal evaluation, winter wheat
Outline: as §1

[14] = tested on: Matricaria inodora (MATIN); assay: Pre-emergence herbicidal evaluation, mayweed
Outline: as §1

[15] = tested on: Oryza sativum (ORYSA); assay: Pre-emergence herbicidal evaluation, rice
Outline: as §1

[16] = tested on: Lamium purpureum (LAMPU); assay: Post-emergence herbicidal evaluation, purple deadnettle; conditions: rated 2 to 4 weeks after treatment
Outline: as §2

[17] = tested on: Galium aparine (GALAP); assay: Pre-emergence herbicidal evaluation, cleaver
Outline: as §1

[18] = tested on: Ipomoea hederacea (IPOHE); assay: Pre-emergence herbicidal evaluation, morning glory
Outline: as §1

[19] = tested on: Stellaria media (STEME); assay: Post-emergence herbicidal evaluation, chickweed; conditions: rated 2 to 4 weeks after treatment
Outline: as §2

[20] = tested on: Stellaria media (STEME); assay: Pre-emergence herbicidal evaluation, chickweed
Outline: as §1

[21] = tested on: Ipomoea hederacea (IPOHE); assay: Post-emergence herbicidal evaluation, morning glory; conditions: rated 2 to 4 weeks after treatment
Outline: as §2

[22] = tested on: Alopecurus myosuroides (ALOMY); assay: Pre-emergence herbicidal evaluation, black grass
Outline: as §1

[23] = tested on: Setaria viridis (SETVI); assay: Post-emergence herbicidal evaluation, green foxtail; conditions: for SETVI rating: rated 2 to 4 weeks after treatment
Outline: as §2

[24] = tested on: Alopecurus myosuroides (ALOMY); assay: Post-emergence herbicidal evaluation, black grass; conditions: rated 2 to 4 weeks after treatment
Outline: as §2

[25] = tested on: Oryza sativum (ORYSA); assay: Post-emergence herbicidal evaluation, rice; conditions: rated 2 to 4 weeks after treatment
Outline: as §2

[26] = tested on: Ambrosia artemiisifolia (AMBEL); assay: Post-emergence herbicidal evaluation, ragweed; conditions: rated 2 to 4 weeks after treatment
Outline: as §2

In the case of `Cc1cc(OCC(F)(F)C(F)F)nc(Oc2cc(C(F)(F)F)nn2C)c1` [Example 6], the SOLNI rating ([1]; dose 0.013 kg/ha) is reported as 4 (4 - Injury), the SOLNI rating ([1]; dose 0.025 kg/ha) is reported as 4 (4 - Injury) and the SOLNI rating ([1]; dose 0.1 kg/ha) is reported as 8 (8 - Approaching complete kill). For the same compound, the SOLNI rating ([1]; dose 0.4 kg/ha) was 9 (9 - Complete kill), the GALAP rating ([2]; dose 0.1 kg/ha) was 6 (6 - Herbicidal effect) and the GALAP rating ([2]; dose 0.25 kg/ha) was 3 (3 - Moderate effect). For the same compound, the GALAP rating ([2]; dose 0.4 kg/ha) was 7 (7 - Good herbicidal effect), the ZEAMX rating ([3]; dose 0.1 kg/ha) was 2 (2 - Slight effect) and the ZEAMX rating ([3]; dose 0.25 kg/ha) was 1 (1 - Trace effect). For the same compound, the ZEAMX rating ([3]; dose 0.4 kg/ha) was 5 (5 - Definite injury), the TRZAW rating ([4]; dose 0.1 kg/ha) was 2 (2 - Slight effect) and the TRZAW rating ([4]; dose 0.25 kg/ha) was 1 (1 - Trace effect). The TRZAW rating ([4]; dose 0.4 kg/ha) was 3 (3 - Moderate effect), the GLXMA rating ([5]; dose 0.013 kg/ha) was 0 (0 - No effect) and the GLXMA rating ([5]; dose 0.025 kg/ha) was 2 (2 - Slight effect). The GLXMA rating ([5]; dose 0.1 kg/ha) was 3 (3 - Moderate effect), the GLXMA rating ([5]; dose 0.4 kg/ha) was 5 (5 - Definite injury) and the ABUTH rating ([6]; dose 0.1 kg/ha) was 4 (4 - Injury). The ABUTH rating ([6]; dose 0.25 kg/ha) was 2 (2 - Slight effect), the ABUTH rating ([6]; dose 0.4 kg/ha) was 6 (6 - Herbicidal effect) and the SETVI rating ([7]; dose 0.013 kg/ha) was 4 (4 - Injury). For the same compound, the SETVI rating ([7]; dose 0.025 kg/ha) was 6 (6 - Herbicidal effect), the SETVI rating ([7]; dose 0.1 kg/ha) was 8 (8 - Approaching complete kill) and the SETVI rating ([7]; dose 0.4 kg/ha) was 9 (9 - Complete kill). For the same compound, the GLXMA rating ([8]; dose 0.1 kg/ha) was 7 (7 - Good herbicidal effect), the GLXMA rating ([8]; dose 0.25 kg/ha) was 7 (7 - Good herbicidal effect) and the GLXMA rating ([8]; dose 0.4 kg/ha) was 7 (7 - Good herbicidal effect). For the same compound, the MATIN rating ([9]; dose 0.1 kg/ha) was 6 (6 - Herbicidal effect), the MATIN rating ([9]; dose 0.25 kg/ha) was 4 (4 - Injury) and the MATIN rating ([9]; dose 0.4 kg/ha) was 6 (6 - Herbicidal effect). For the same compound, the DIGSA rating ([10]; dose 0.1 kg/ha) was 6 (6 - Herbicidal effect), the DIGSA rating ([10]; dose 0.25 kg/ha) was 4 (4 - Injury) and the DIGSA rating ([10]; dose 0.4 kg/ha) was 7 (7 - Good herbicidal effect). For the same compound, the ZEAMX rating ([11]; dose 0.013 kg/ha) was 0 (0 - No effect), the ZEAMX rating ([11]; dose 0.025 kg/ha) was 1 (1 - Trace effect) and the ZEAMX rating ([11]; dose 0.1 kg/ha) was 3 (3 - Moderate effect). For the same compound, the ZEAMX rating ([11]; dose 0.4 kg/ha) was 5 (5 - Definite injury), the ABUTH rating ([12]; dose 0.013 kg/ha) was 1 (1 - Trace effect) and the ABUTH rating ([12]; dose 0.025 kg/ha) was 2 (2 - Slight effect). The ABUTH rating ([12]; dose 0.1 kg/ha) was 3 (3 - Moderate effect), the ABUTH rating ([12]; dose 0.4 kg/ha) was 9 (9 - Complete kill) and the TRZAW rating ([13]; dose 0.013 kg/ha) was 0 (0 - No effect). The TRZAW rating ([13]; dose 0.025 kg/ha) was 0 (0 - No effect), the TRZAW rating ([13]; dose 0.1 kg/ha) was 1 (1 - Trace effect) and the TRZAW rating ([13]; dose 0.4 kg/ha) was 2 (2 - Slight effect). The MATIN rating ([14]; dose 0.1 kg/ha) was 9 (9 - Complete kill), the MATIN rating ([14]; dose 0.4 kg/ha) was 9 (9 - Complete kill) and the ORYSA rating ([15]; dose 0.013 kg/ha) was 0 (0 - No effect). The ORYSA rating ([15]; dose 0.025 kg/ha) was 0 (0 - No effect), the ORYSA rating ([15]; dose 0.1 kg/ha) was 1 (1 - Trace effect) and the ORYSA rating ([15]; dose 0.4 kg/ha) was 2 (2 - Slight effect). For the same compound, the LAMPU rating ([16]; dose 0.1 kg/ha) was 6 (6 - Herbicidal effect), the LAMPU rating ([16]; dose 0.25 kg/ha) was 4 (4 - Injury) and the LAMPU rating ([16]; dose 0.4 kg/ha) was 7 (7 - Good herbicidal effect). For the same compound, the GALAP rating ([17]; dose 0.013 kg/ha) was 1 (1 - Trace effect), the GALAP rating ([17]; dose 0.025 kg/ha) was 1 (1 - Trace effect) and the GALAP rating ([17]; dose 0.1 kg/ha) was 5 (5 - Definite injury). The GALAP rating ([17]; dose 0.4 kg/ha) was 8 (8 - Approaching complete kill), the IPOHE rating ([18]; dose 0.013 kg/ha) was 0 (0 - No effect) and the IPOHE rating ([18]; dose 0.025 kg/ha) was 1 (1 - Trace effect). The IPOHE rating ([18]; dose 0.1 kg/ha) was 2 (2 - Slight effect), the IPOHE rating ([18]; dose 0.4 kg/ha) was 8 (8 - Approaching complete kill) and the STEME rating ([19]; dose 0.1 kg/ha) was 2 (2 - Slight effect). For the same compound, the STEME rating ([19]; dose 0.25 kg/ha) was 2 (2 - Slight effect), the STEME rating ([19]; dose 0.4 kg/ha) was 3 (3 - Moderate effect) and the STEME rating ([20]; dose 0.1 kg/ha) was 9 (9 - Complete kill). For the same compound, the STEME rating ([20]; dose 0.4 kg/ha) was 9 (9 - Complete kill), the IPOHE rating ([21]; dose 0.1 kg/ha) was 8 (8 - Approaching complete kill) and the IPOHE rating ([21]; dose 0.25 kg/ha) was 7 (7 - Good herbicidal effect). For the same compound, the IPOHE rating ([21]; dose 0.4 kg/ha) was 9 (9 - Complete kill), the ALOMY rating ([22]; dose 0.013 kg/ha) was 1 (1 - Trace effect) and the ALOMY rating ([22]; dose 0.025 kg/ha) was 3 (3 - Moderate effect). The ALOMY rating ([22]; dose 0.1 kg/ha) was 9 (9 - Complete kill), the ALOMY rating ([22]; dose 0.4 kg/ha) was 9 (9 - Complete kill) and the SETVI rating ([23]; dose 0.1 kg/ha) was 3 (3 - Moderate effect). For the same compound, the SETVI rating ([23]; dose 0.25 kg/ha) was 2 (2 - Slight effect), the SETVI rating ([23]; dose 0.4 kg/ha) was 6 (6 - Herbicidal effect) and the “grass control such as Setaria virides” value ([23]; in barley at crop selective doses) was “effective”. For the same compound, the ALOMY rating ([24]; dose 0.1 kg/ha) was 6 (6 - Herbicidal effect), the ALOMY rating ([24]; dose 0.25 kg/ha) was 2 (2 - Slight effect) and the ALOMY rating ([24]; dose 0.4 kg/ha) was 8 (8 - Approaching complete kill). The ORYSA rating ([25]; dose 0.1 kg/ha) was 1 (1 - Trace effect), the ORYSA rating ([25]; dose 0.25 kg/ha) was 1 (1 - Trace effect) and the ORYSA rating ([25]; dose 0.4 kg/ha) was 1 (1 - Trace effect). The AMBEL rating ([26]; dose 0.1 kg/ha) was 4 (4 - Injury), the AMBEL rating ([26]; dose 0.25 kg/ha) was 3 (3 - Moderate effect) and the AMBEL rating ([26]; dose 0.4 kg/ha) was 6 (6 - Herbicidal effect).
